Results from ChEMBL document CHEMBL1122566, “Resorcinol congeners of dopamine derived from benzocycloheptene and indan” (1984).

What was measured:
Felis catus [1] = assay: Effect on increase in heart rate in anesthetized cats at intravenous dose of 300 ug/kg; format: functional
Felis catus [2] = assay: Effect on rise in arterial pressure in anesthetized cats at intravenous dose of 1000 ug/kg; format: functional, Artery
Felis catus [3] = assay: Effect on increase in heart rate in anesthetized cats at intravenous dose of 100 ug/kg; format: functional
Felis catus [4] = assay: Effect on rise in arterial pressure in anesthetized cats at intravenous dose of 100 ug/kg; format: functional, Artery
Felis catus [5] = assay: Effect on rise in arterial pressure in anesthetized cats at intravenous dose of 300 ug/kg; format: functional, Artery
Felis catus [6] = assay: Effect on rise in arterial pressure in anesthetized cats at intravenous dose of 30 ug/kg; format: functional, Artery
Felis catus [7] = assay: Effect on increase in heart rate in anesthetized cats at intravenous dose of 30 ug/kg; format: functional

Question: How did the Heart rate (Felis catus [1]) turn out when `NC1Cc2cc(O)cc(O)c2C1` (centres undefined) was run?
Answer: 7.3 beats min-1

Question: What about the Arterial pressure (Felis catus [2]) of the same compound?
Answer: 70.3 mmHg

Question: What about the Heart rate (Felis catus [3]) of the same compound?
Answer: 0 beats min-1

Question: What about the Arterial pressure (Felis catus [4]) of the same compound?
Answer: 13.3 mmHg

Question: Which Heart rate (Felis catus [1]) does the source give for `CCCN(CCC)C1Cc2cc(O)cc(O)c2C1` (centres undefined) here?
Answer: 21.7 beats min-1

Question: And the Arterial pressure (Felis catus [2])?
Answer: 22.8 mmHg

Question: And the Heart rate (Felis catus [3])?
Answer: 0 beats min-1

Question: And the Arterial pressure (Felis catus [4])?
Answer: 10 mmHg

Question: `NC1CCCc2c(O)cc(O)cc2C1` (centres undefined) was tested. Which Arterial pressure (Felis catus [5]) did it give?
Answer: 78.7 mmHg

Question: What about the Arterial pressure (Felis catus [6]) of the same compound?
Answer: 25.3 mmHg

Question: What about the Heart rate (Felis catus [1]) of the same compound?
Answer: 42 beats min-1

Question: And the Heart rate (Felis catus [3])?
Answer: 11.7 beats min-1

Question: And the Heart rate (Felis catus [7])?
Answer: 4.3 beats min-1

Question: And the Arterial pressure (Felis catus [4])?
Answer: 40 mmHg
